The source of these data is US20030152500A1, “Rotor-stator apparatus and process for the formation of particles” (priority 2001, published 2003).

Data set [1] in a line: Primary crystal/particle size by image analysis. The format is physicochemical. The settings on record: Example 8: 15% (w/w) glycine 14 mL/min, ethanol 190 mL/min, anhydrous ethanol quench. The procedure: The same procedure as in Example 7 was used, except the feed rate of the 15% (w/w) aqueous glycine solution was 14 mL/min and the feed rate of the anhydrous ethanol antisolvent was 190 mL/min. A quenching solution of anhydrous ethanol (>99%) was used.
Salicylic acid […] was dissolved in anhydrous ethanol (>99%) at a concentration of 24.8% (w/w). This solution was fed to the same apparatus as configured in Example 1. Water was co-fed as the antisolvent.

The nature of data set [2]: Crystal size of rotor-stator exit stream observed under videomicroscope.

As for `NCC(=O)O` [glycine, Glycine], the “mean size of primary crystals” value in data set [1] was 4.4 μm. In addition, the “mean size of crystals” value in data set [2] (Example 1: 5% (w/w) aqueous glycine 190 mL/min, ethanol 190 mL/min, 10,000 rpm, quench 50% water 50% ethanol) is on record as 25 μm; in data set [2] (Example 3: as Example 1, rotor-stator speed 5,000 rpm) it was 40 μm; in data set [2] (Example 4: as Example 1, 15% (w/w) glycine solution) it was 40 μm; in data set [2] (Example 5: as Example 1, 15% (w/w) glycine, 5,000 rpm), 70 μm; in data set [2] (Example 7: 15% (w/w) glycine 21 mL/min, ethanol 190 mL/min), 6 μm. In addition, in data set [2] (Example 6: as Example 1, 15% (w/w) glycine, 0 rpm), the “mean length of crystals” value is 300 μm.
